Laboratory results reported in publication PMC7802075 (ACS Infectious Diseases, 2020).
Where a name gives a salt, the structure may show the parent alone. Read-outs that look alike come from different tables or passages of the source.

Target: T1, LmjIPCS (inositol phosphorylceramide synthase from L. major) (Leishmania major, UniProt E9AFX2)
T1 sequence (E9AFX2 1-338): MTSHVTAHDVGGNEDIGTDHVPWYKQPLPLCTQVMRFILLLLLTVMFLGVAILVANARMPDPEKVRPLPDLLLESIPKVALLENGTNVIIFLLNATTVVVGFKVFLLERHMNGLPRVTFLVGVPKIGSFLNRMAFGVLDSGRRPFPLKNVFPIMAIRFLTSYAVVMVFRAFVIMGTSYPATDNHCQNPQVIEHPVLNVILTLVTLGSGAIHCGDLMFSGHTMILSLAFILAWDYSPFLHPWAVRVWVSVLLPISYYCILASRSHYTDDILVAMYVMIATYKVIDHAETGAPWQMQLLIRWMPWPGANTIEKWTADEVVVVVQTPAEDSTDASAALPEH
Experiment: biochemical
Format: biochemical
Design: inhibition: dose or concentration left out as unconfirmed
Details: for inhibition: read-out: inhibition LmjIPCS; for inhibition at 20000 µM: read-out: 20mM inhibition LmjIPCS

[1] = NINDS set screen, single concentration printed as 20mM

CCCCCCCCCCCCCCCC(=O)OC/C=C(C)/C=C/C=C(C)/C=C/C1=C(C)CCCC1(C)C [RETINYL PALMITATE]
inhibition (NINDS set screen): 18%

CC(C)C(=O)Nc1ccc([N+](=O)[O-])c(C(F)(F)F)c1 [FLUTAMIDE]
inhibition at 20000 µM: -1.8%

COc1ccc(CCC(=O)c2c(O)cc(O[C@@H]3O[C@H](CO)[C@@H](O)[C@H](O)[C@H]3O[C@@H]3O[C@@H](C)[C@H](O)[C@@H](O)[C@H]3O)cc2O)cc1O [NEOHESPERIDIN DIHYDROCHALCONE]
20mM inhibition LmjIPCS (NINDS set screen, compound at 20mM (so in the source)): 15%

CCCCC(=O)Oc1ccccc1C(=O)O [VALERYL SALYCILATE]
inhibition at 20000 µM: 10%

NC(=O)c1ccccc1O [SALICYLAMIDE]
inhibition (NINDS set screen): 0.588%

CC1=NCCc2c1[nH]c1cc(O)ccc21 [HARMALOL]
inhibition (NINDS set screen): 17%

CN(C)[C@@H]1C(O)=C(C(N)=O)C(=O)[C@@]2(O)C(O)=C3C(=O)c4c(O)ccc(Cl)c4[C@@](C)(O)[C@H]3C[C@@H]12 [CHLORTETRACYCLINE]
20mM inhibition LmjIPCS: 56%

O=C(O)c1nc2cc(Cl)c(Cl)cc2nc1O
inhibition (NINDS set screen): -14%

COc1ccccc1OCC(O)COC(N)=O (stereo not shown) [METHOCARBAMOL]
inhibition at 20000 µM: 13%

CCOC(=O)N1CCC(=C2c3ccc(Cl)cc3CCc3cccnc32)CC1 [LORATADINE]
inhibition at 20000 µM: 21%

CN(C)c1ccc(C(=C2C=CC(=[N+](C)C)C=C2)c2ccc(N(C)C)cc2)cc1 [GENTIAN VIOLET]
20mM inhibition LmjIPCS [1]: 64%

CC(CN(C)C)CN1c2ccccc2CCc2ccccc21 (stereo not shown) [TRIMIPRAMINE]
inhibition (screening of NINDS set, sheet Screen 1): 2%

C#C[C@]1(O)CC[C@H]2[C@@H]3CCC4=CC(=O)CC[C@]4(C)[C@H]3CC[C@@]21C [ETHISTERONE]
inhibition at 20000 µM: 2.43%

Cn1cc[nH]c1=S [METHIMAZOLE]
inhibition (NINDS set screen): 13%

O=C(O)c1cc(=O)c2c(OCC(O)COc3cccc4oc(C(=O)O)cc(=O)c34)cccc2o1 [CROMOLYN]
inhibition: 0.579%

CC1(C)S[C@@H]2[C@H](NC(=O)C(C(=O)O)c3ccccc3)C(=O)N2[C@H]1C(=O)O (stereo partly shown) [CARBENICILLIN]
20mM inhibition LmjIPCS: 52%

c1ccc(-c2ccc(C(c3ccccc3)n3ccnc3)cc2)cc1 (stereo not shown) [BIFONAZOLE]
20mM inhibition LmjIPCS: 52%

CCOC(=O)n1ccn(C)c1=S [CARBIMAZOLE]
inhibition: 12%

CCN(CC)Cc1cc(Nc2ccnc3cc(Cl)ccc23)ccc1O [AMODIAQUINE]
20mM inhibition LmjIPCS: 59%

COc1cc(C(C)=O)cc(OC)c1O [ACETOSYRINGONE]
inhibition at 20000 µM: 21%

CC(C)Cn1c(=O)n(C)c(=O)c2[nH]cnc21 [3-ISOBUTYL-1-METHYLXANTHINE]
20mM inhibition LmjIPCS: 11%

CC1=C(C(=O)O)N2C(=O)[C@@H](NC(=O)[C@H](N)c3ccccc3)[C@H]2SC1 [CEPHALEXIN]
inhibition at 20000 µM: 5.26%

CC(=O)OCC(=O)[C@@]1(O)[C@H](C)C[C@H]2[C@@H]3CCC4=CC(=O)C=C[C@]4(C)[C@@]3(F)[C@@H](O)C[C@@]21C [DEXAMETHASONE ACETATE]
inhibition at 20000 µM: -3.4%

Nc1ccc(C(=O)[O-])cc1.[K+] [POTASSIUM p-AMINOBENZOATE]
20mM inhibition LmjIPCS: 40%

Cc1cc2c(C(C)C)c(O)c(O)c(C=O)c2c(O)c1-c1c(C)cc2c(C(C)C)c(O)c(O)c(C=O)c2c1O [GOSSYPOL]
20mM inhibition LmjIPCS: 37%

COC(=O)[C@]1(C)CC[C@]2(C)CC[C@]3(C)C4=CC=C5C(=CC(=O)C(O)=C5C)[C@]4(C)CC[C@@]3(C)[C@@H]2C1 [PRISTIMERIN]
20mM inhibition LmjIPCS: 62%

CC(=O)[C@H]1CC[C@H]2[C@@H]3CC=C4C[C@@H](O)CC[C@]4(C)[C@H]3CC[C@]12C [PREGNENOLONE]
20mM inhibition LmjIPCS [1]: 52%

CCOC(=O)[C@H](CCc1ccccc1)N[C@@H](C)C(=O)N1Cc2ccccc2C[C@H]1C(=O)O
inhibition at 20000 µM: 5.45%

COc1ccc(C(C)=O)c(O)c1 [PAEONOL]
inhibition at 20000 µM: 9%

CC(=O)N[C@@H](CC(=O)O)C(=O)O [N-ACET[…]]
inhibition at 20000 µM: -3%

CCCC(C)(COC(N)=O)COC(=O)NC(C)C (stereo not shown) [CARISOPRODOL]
20mM inhibition LmjIPCS: 52%

BACITRACIN
20mM inhibition LmjIPCS [1]: 44%

CC(=O)N1CCCC1C(=O)O (stereo not shown) [N-ACETYLPROLINE]
inhibition (NINDS set screen): -1.28%

CCCCCCc1ccc(O)cc1O.Nc1c2ccccc2nc2ccccc12 [ACRISORCIN]
20mM inhibition LmjIPCS: 30%

Cc1ccc(Cl)c(Nc2ccccc2C(=O)O)c1Cl [MECLOFENAMATE]
inhibition at 20000 µM: 6%

O=c1c(O)c(-c2ccc(O)c(O)c2)oc2cc(O)cc(O)c12 [QUERCETIN]
inhibition at 20000 µM: 3.45%

COc1cc(O)c2c(c1)C(=O)c1cc(C)cc(O)c1C2=O [PHYSCION]
inhibition: 18%

Oc1c(I)cc(I)c2cccnc12 [IODOQUINOL]
inhibition (NINDS set screen): 23%

NC(=O)c1cc([N+](=O)[O-])cc([N+](=O)[O-])c1 [NITROMIDE]
20mM inhibition LmjIPCS: 9%

CC(C)[N+](C)(CCC(C(N)=O)(c1ccccc1)c1ccccc1)C(C)C [ISOPROPAMIDE]
inhibition: 11%

CCN1CCN(C(=O)N[C@@H](C(=O)N[C@@H]2C(=O)N3C(C(=O)O)=C(CSc4nnnn4C)CS[C@H]23)c2ccc(O)cc2)C(=O)C1=O [CEFOPERAZONE]
inhibition at 20000 µM: 13%

CCCCC1=NC2(CCCC2)C(=O)N1Cc1ccc(-c2ccccc2-c2nnn[nH]2)cc1 [IRBESARTAN]
inhibition: 1%

C[C@H]1O[C@@H](n2cc(F)c(=O)[nH]c2=O)[C@H](O)[C@@H]1O [5-FLUORO-5'-DEOXYURIDINE]
20mM inhibition LmjIPCS (single concentration 20mM as printed, screening of NINDS set, sheet Screen 1): 3.33%

CCC1(c2ccccc2)C(=O)NCNC1=O [PRIMIDONE]
inhibition at 20000 µM: -1.2%

OC(CCN1CCCCC1)(c1ccccc1)C1CCCCC1 (stereo not shown) [TRIHEXYPHENIDYL]
20mM inhibition LmjIPCS: 57%

C1CCC(C(CC2CCCCN2)C2CCCCC2)CC1 (stereo not shown) [PERHEXILINE]
inhibition: 12%

Cc1cc(CC(=O)O)n(C)c1C(=O)c1ccc(Cl)cc1 [ZOMEPIRAC]
inhibition at 20000 µM: 10%

C#CCCCCCCCCCCCC(O)CC(O)CO (stereo not shown) [AVOCADYNE]
20mM inhibition LmjIPCS [1]: 65%

O=C(/C=C/c1ccc(O)c(O)c1)O[C@H](Cc1ccc(O)c(O)c1)C(=O)O [ROSMARINIC ACID]
20mM inhibition LmjIPCS: 58%

C=C1c2c(Cl)ccc(O)c2C(=O)C2=C(O)[C@]3(O)C(=O)C(C(N)=O)=C(O)[C@@H](N(C)C)[C@@H]3[C@@H](O)[C@H]12 [MECLOCYCLINE]
20mM inhibition LmjIPCS [1]: 67%

CNC[C@H](O)c1cccc(O)c1 [PHENYLEPHRINE]
inhibition (NINDS set screen): 25%

OC(c1cc(C(F)(F)F)nc2c(C(F)(F)F)cccc12)C1CCCCN1 (stereo not shown) [MEFLOQUINE]
20mM inhibition LmjIPCS: 49%

CN1CCCC(n2nc(Cc3ccc(Cl)cc3)c3ccccc3c2=O)CC1 (stereo not shown) [AZELASTINE]
20mM inhibition LmjIPCS [1]: 56%

O=C(NCO)c1cccnc1 [N-HYDROXYMETHYLNICOTINAMIDE]
inhibition (NINDS set screen): 12%

CC1=C(C(=O)O)N2C(=O)[C@@H](NC(=O)[C@H](N)C3=CCC=CC3)[C@H]2SC1 [CEPHRADINE]
20mM inhibition LmjIPCS: 40%

COC(=O)[C@@H]1[C@H]2C[C@H]3c4[nH]c5ccccc5c4CCN3C[C@@H]2CC[C@@H]1O [YOHIMBINE HYDROCHLORIDE]
inhibition: 23%

CC(=O)NC(C(=O)O)C(C)(C)SN=O (stereo not shown)
inhibition at 20000 µM: 9%

CCCn1c(=O)c2[nH]c(C3CCCC3)nc2n(CCC)c1=O
inhibition: 2.66%

CCOc1ccc(Cc2nccc3cc(OCC)c(OCC)cc23)cc1OCC [ETHAVERINE]
inhibition (NINDS set screen): -7%

CC1=C(/C=C/C(C)=C/C=C/C(C)=C/C=C/C=C(C)/C=C/C=C(C)/C=C/C(=O)[C@]2(C)C[C@@H](O)CC2(C)C)C(C)(C)C[C@H](O)C1 [CAPSANTHIN]
inhibition (NINDS set screen): 33%

CCC(N)C(O)c1ccc(O)c(O)c1 (stereo not shown) [ETHYLNOREPINEPHRINE]
inhibition at 20000 µM: -9%

CS(=O)(=O)c1ccc([C@@H](O)[C@@H](CO)NC(=O)C(Cl)Cl)cc1 [THIAMPHENICOL]
inhibition at 20000 µM: 0.377%

CC(=O)OC/C=C(C)/C=C/C=C(C)/C=C/C1=C(C)CCCC1(C)C [RETINYL ACETATE]
inhibition at 20000 µM: 9%

N#Cc1ccc2c(c1)N(CCCN1CCC(O)CC1)c1ccccc1S2 [PERICIAZINE]
20mM inhibition LmjIPCS [1]: 52%

O=[N+]([O-])c1cccc2cn[nH]c12 [7-NITROINDAZOLE]
inhibition (NINDS set screen): 24%

C[N+]1(C)[C@@H]2C[C@@H](OC(=O)[C@H](CO)c3ccccc3)C[C@H]1[C@@H]1O[C@@H]12 [METHSCOPOLAMINE BROMIDE]
inhibition at 20000 µM: 10%

CN1[C@@H]2C[C@@H](OC(=O)[C@H](CO)c3ccccc3)C[C@H]1[C@@H]1O[C@@H]12 [SCOPOLAMINE]
inhibition at 20000 µM: -2.65%

CC1(C)[C@@H](O)CC[C@]2(C)[C@H]3C(=O)C=C4[C@H]5C[C@@](C)(C(=O)O)CC[C@]5(C)CC[C@@]4(C)[C@]3(C)CC[C@@H]12
inhibition at 20000 µM: 7%

COC(=O)Nc1nc2ccc(Sc3ccccc3)cc2[nH]1 [FENBENDAZOLE]
inhibition: 20%

Oc1c(Cl)cc(Cl)c(Cl)c1Cc1c(O)c(Cl)cc(Cl)c1Cl [HEXACHLOROPHENE]
20mM inhibition LmjIPCS: 41%

CC1CCC(NC(=O)N(CCCl)N=O)CC1 (stereo not shown) [SEMUSTINE]
inhibition at 20000 µM: 15%

CC[C@@H]1C(=O)OC[C@@H]1Cc1cncn1C [PILOCARPINE]
inhibition (NINDS set screen): -4.6%

CN[C@@H]1[C@@H](O)[C@@H](O[C@@H]2[C@@H](O)[C@H](O[C@H]3O[C@H]([C@@H](C)O)[C@@H](O)[C@H](O)[C@H]3N)[C@@H](N)C[C@H]2N)OC[C@]1(C)O [GENETICIN]
inhibition at 20000 µM: 13%

CN(Cc1cnc2nc(N)nc(N)c2n1)c1ccc(C(=O)N[C@@H](CCC(=O)O)C(=O)O)cc1 [METHOTREXATE]
inhibition: 8%

CN(C)CCC(c1ccc(Br)cc1)c1ccccn1 (stereo not shown) [BROMPHENIRAMINE]
inhibition at 20000 µM: 14%

CCN(CC)CCNC(=O)c1cc(Cl)c(N)cc1OC [METOCLOPRAMIDE]
inhibition: 6%
